Laboratory results as given in PubChem BioAssay (NCI).
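Results reflect a 48-hour exposure of cells in 96-well plates to compound at five concentrations. The concentration for full growth arrest is given as TGI.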

Assays:
Assay in all cases: inhibition of tumour cell growth, NCI panel, 48 h
DMS 273 small cell lung = tested on: DMS 273 small cell lung
RPMI-8226 leukemia = tested on: RPMI-8226 leukemia
HL-60(TB) leukemia = tested on: HL-60(TB) leukemia
HCT-116 colon = tested on: HCT-116 colon
K-562 leukemia = tested on: K-562 leukemia
KM20L2 colon = tested on: KM20L2 colon
A498 renal = tested on: A498 renal
MOLT-4 leukemia = tested on: MOLT-4 leukemia
HOP-92 NSCLC = tested on: HOP-92 NSCLC
UO-31 renal = tested on: UO-31 renal
CAKI-1 renal = tested on: CAKI-1 renal
HCT-15 colon = tested on: HCT-15 colon
M14 melanoma = tested on: M14 melanoma
SF-268 CNS = tested on: SF-268 CNS
TK-10 renal = tested on: TK-10 renal
SW-620 colon = tested on: SW-620 colon
UACC-62 melanoma = tested on: UACC-62 melanoma
SK-MEL-5 melanoma = tested on: SK-MEL-5 melanoma
U251 CNS = tested on: U251 CNS
NCI-H522 lung = tested on: NCI-H522 lung
XF 498 CNS = tested on: XF 498 CNS
OVCAR-8 ovarian = tested on: OVCAR-8 ovarian
A549 NSCLC = tested on: A549 NSCLC
DLD-1 colon = tested on: DLD-1 colon
IGROV1 ovarian = tested on: IGROV1 ovarian
HT29 colon = tested on: HT29 colon
KM12 colon = tested on: KM12 colon
SF-295 CNS = tested on: SF-295 CNS
LOX IMVI melanoma = tested on: LOX IMVI melanoma
COLO 205 colon = tested on: COLO 205 colon
M19-MEL melanoma = tested on: M19-MEL melanoma
HOP-18 NSCLC = tested on: HOP-18 NSCLC
HOP-62 NSCLC = tested on: HOP-62 NSCLC
OVCAR-3 ovarian = tested on: OVCAR-3 ovarian
OVCAR-4 ovarian = tested on: OVCAR-4 ovarian
SF-539 CNS = tested on: SF-539 CNS
SNB-75 CNS = tested on: SNB-75 CNS
HCC-2998 colon = tested on: HCC-2998 colon
EKVX NSCLC = tested on: EKVX NSCLC
786-0 renal = tested on: 786-0 renal
SK-OV-3 ovarian = tested on: SK-OV-3 ovarian
LXFL 529 NSCLC = tested on: LXFL 529 NSCLC
UACC-257 melanoma = tested on: UACC-257 melanoma
NCI-H460 lung = tested on: NCI-H460 lung
MALME-3M melanoma = tested on: MALME-3M melanoma
DMS 114 small cell lung = tested on: DMS 114 small cell lung
SNB-19 CNS = tested on: SNB-19 CNS
NCI-H226 lung = tested on: NCI-H226 lung
SN12C renal = tested on: SN12C renal
CCRF-CEM leukemia = tested on: CCRF-CEM leukemia
ACHN renal = tested on: ACHN renal
SNB-78 CNS = tested on: SNB-78 CNS

Measured: TGI

CC(CC(=O)N1C(=O)C(C)(C)[C@@H](O)[C@H]1CC(C)C(Cl)(Cl)Cl)C(Cl)(Cl)Cl (some centres not stated)
> 100 µM: all assays above
